Source: paper PMC4621755 (Chemistry & biology, 2015)

Biological target: T1, Acaa2 (Mus musculus, UniProt Q8BWT1)
T1 sequence (Q8BWT1 1-397): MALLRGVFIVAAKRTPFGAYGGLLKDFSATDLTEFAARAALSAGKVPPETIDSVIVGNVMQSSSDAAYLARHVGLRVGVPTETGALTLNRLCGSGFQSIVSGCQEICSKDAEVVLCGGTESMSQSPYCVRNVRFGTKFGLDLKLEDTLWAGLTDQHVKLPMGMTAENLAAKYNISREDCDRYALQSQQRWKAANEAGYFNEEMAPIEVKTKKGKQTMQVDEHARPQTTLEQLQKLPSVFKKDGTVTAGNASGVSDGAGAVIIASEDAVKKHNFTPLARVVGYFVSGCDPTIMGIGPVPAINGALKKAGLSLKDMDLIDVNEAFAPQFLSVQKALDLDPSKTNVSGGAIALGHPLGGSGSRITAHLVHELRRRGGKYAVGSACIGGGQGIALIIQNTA
Experiment: competition against IAyne labelling, in-gel fluorescence
Type: biochemical
Conditions: covalent; lysate of overexpressing HEK293T; 30 min preincubation

## N#Cc1c(Cl)c(Cl)c(Cl)c(C#N)c1Cl [chlorothalonil]
  % reduction in IAyne labeling at 100 nM: 9.4 ± 1.2%
